In patent US20250288558A1, “THERAPEUTIC FOR SPINAL CORD INJURY TO INDUCE HYPOTHERMIA” (The Trustees of Indiana University, priority 2024, published 2025):
Counter-ions that a name gives are not always drawn.

How the values were obtained:
[1] = tested on: SMI31-positive axons in white matter; details: FIG. 8B
Method: (§1) We further counted the number of NeuN-positive neurons in each section. […] Therefore, SMI31, an axon maker immunostaining was performed to evaluate the axons in spared white matter.
(§2) Immunofluorescent Staining: Immunofluorescent staining was carried out according to our previous reports. In brief, sections on the slides were rinsed in PBS 3 times (5 minutes each) and incubated in blocking buffer (0.1% Triton X-100, 1% bovine serum albumin, and 5% normal serum in PBS) for 1 hour at room temperature. Then, primary antibodies were added to blocking buffer and incubated with sections overnight at 4° C. After 3 washes with PBS (5 minutes each), sections were incubated with the secondary antibody for 1 hour at room temperature and then treated with 4′,6-Diamidino-2-phenylindole (DAPI) for 2 minutes. Finally, sections were washed 3 times with PBS (5 minutes each), dried, and mounted using Fluoromount G (Southern Biotech, Birmingham, AL, USA). Primary antibodies and their final concentrations were as follows: NeuN antibody (1:500, chicken, Abcam, ab134014), SMI31 antibody (1:1000, mouse, Millipore, NE1022), and GFAP antibody (1:1000, mouse, Sigma, G3893).

NeuN-positive neurons = details: after SCI, FIG. 8A
Method: as §1, §2

**Q.** With Cc1cccc([C@H](C)c2cnc[nH]2)c1C [Dex, dexmedetomidine hydrochloride] as the molecule, how does the “SMI31 signal (intensity and area) vs. SCI” value [1] read?
**A.** significantly preserved more

**Q.** And the “surviving NeuN-positive neurons compared to none-treatment group” value (NeuN-positive neurons)?
**A.** about 10 times
